Data reported in US20250270213A1, “PI3Ka INHIBITORS” (Synnovation Therapeutics, Inc., priority 2022, published 2025).
Where two headings read alike, the source gives them in different places.

Test system: T47D (PIK3CA H1047R) cells
Experiment: pS473 AKT assay with 2.5% FBS, T47D cells
Type: cell-based
Settings: pSer473 AKT, DMEM with 2.5% FBS, 2 h treatment, read-out: T47D_IC50
How it was run: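 T47D (PIK3CA H1047R) cells were switched to DMEM with 2.5% FBS and exposed to compounds for 2 h. After paraformaldehyde fixation, pSer473 AKT was detected by in-cell ELISA (rabbit primary, HRP anti-rabbit secondary, chemiluminescence); IC50 values were fitted from the concentration series.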

| Structure (SMILES) | IC50 (Homo sapiens) [µM] | IC50 [µM] |
| --- | --- | --- |
| CCn1ncc2c3c(C(C)Nc4ccc(Cl)nc4-c4ccc(=O)n(C)c4)cc(C)cc3c(=O)n(C3CC3)c21 (stereo not shown) [Example 222, 9-[1-[[6-chloro-2-(1-methyl-6-oxo-3-pyridyl)-3-pyridyl]amino]ethyl]-4-cyclopropyl-3-ethyl-7-methyl-pyrazolo[3,4-c]isoquinolin-5-one] | < 1 | – |
| CCn1ncc2c3c(C(C)Nc4ccc(Cl)nc4-c4ncn(C)n4)cc(C)cc3c(=O)n(C3CCOC3)c21 (stereo not shown) [Example 223, 9-[1-[[6-Chloro-2-(1-methyl-1,2,4-triazol-3-yl)-3-pyridyl]amino]ethyl]-3-ethyl-7-methyl-4-tetrahydrofuran-3-yl-pyrazolo[3,4-c]isoquinolin-5-one] | < 1 | – |
| CCn1ncc2c3c(CNc4ccc(Cl)nc4-c4ccc(C(=O)NC)c(F)c4)cc(C)cc3c(=O)n(C)c21 [Example 225, 4-(6-Chloro-3-(((3-ethyl-4,7-dimethyl-5-oxo-4,5-dihydro-3H-pyrazolo[3,4-c]isoquinolin-9-yl)methyl)amino)pyridin-2-yl)-2-fluoro-N-methylbenzamide] | < 1 | – |
| CCn1ncc2c3c(C(C)Oc4ccc(Cl)nc4-c4c[nH]nc4C)cc(C)cc3c(=O)n(C)c21 (stereo not shown) [Example 226, 9-(1-((6-Chloro-2-(3-methyl-1H-pyrazol-4-yl)pyridin-3-yl)oxy)ethyl)-3-ethyl-4,7-dimethyl-3,4-dihydro-5H-pyrazolo[3,4-c]isoquinolin-5-one] | < 1 | – |
| CCn1ncc2c3c(C(C)Nc4ccc(Cl)nc4-c4ncn(C)n4)cc(C)cc3c(=O)n(C)c21 (stereo not shown) [Example 228, 9-(1-((6-chloro-2-(1-methyl-1H-1,2,4-triazol-3-yl)pyridin-3-yl)amino)ethyl)-3-ethyl-4,7-dimethyl-3,4-dihydro-5H-pyrazolo[3,4-c]isoquinolin-5-one] | < 1 | – |
| CCn1ncc2c3c(C(C)Nc4ccc(Cl)nc4-c4nncn4C)cc(C)cc3c(=O)n(C)c21 (stereo not shown) [Example 229, 9-(1-((6-chloro-2-(4-methyl-1H-1,2,4-triazol-3-yl)pyridin-3-yl)amino)ethyl)-3-ethyl-4,7-dimethyl-3,4-dihydro-5H-pyrazolo[3,4-c]isoquinolin-5-one] | < 1 | – |
| CCn1ncc2c3c(C(C)Nc4ccc(Cl)nc4-c4nnn[nH]4)cc(C)cc3c(=O)n(C)c21 (stereo not shown) [Example 230, 9-(1-((6-chloro-2-(1H-tetrazol-5-yl)pyridin-3-yl)amino)ethyl)-3-ethyl-4,7-dimethyl-3,4-dihydro-5H-pyrazolo[3,4-c]isoquinolin-5-one] | < 1 | – |
| CCn1ncc2c3c(C(C)Nc4ccc(Cl)nc4-c4ccc(C(=O)O)cc4)cc(C)cc3c(=O)n(C)c21 (stereo not shown) [Example 232, 4-(6-chloro-3-((1-(3-ethyl-4,7-dimethyl-5-oxo-4,5-dihydro-3H-pyrazolo[3,4-c]isoquinolin-9-yl)ethyl)amino)pyridin-2-yl)benzoic acid] | – | < 1 |
| CCn1ncc2c3c(C(C)Nc4ccc(Cl)nc4-c4cnn(C5CCN(C(=O)N(C)C)CC5)c4)cc(C)cc3c(=O)n(C)c21 (stereo not shown) [Example 233, 4-(4-(6-chloro-3-((1-(3-ethyl-4,7-dimethyl-5-oxo-4,5-dihydro-3H-pyrazolo[3,4-c]isoquinolin-9-yl)ethyl)amino)pyridin-2-yl)-1H-pyrazol-1-yl)-N,N-dimethylpiperidine-1-carboxamide] | < 1 | – |
| CCn1ncc2c3c(C(C)Nc4ccc(C)nc4-c4c[nH]nc4C)cc(C)cc3c(=O)n(C)c21 (stereo not shown) [Example 235, 3-ethyl-4,7-dimethyl-9-(1-((6-methyl-2-(3-methyl-1H-pyrazol-4-yl)pyridin-3-yl)amino)ethyl)-3,4-dihydro-5H-pyrazolo[3,4-c]isoquinolin-5-one] | < 1 | – |
| CCn1ncc2c3c(C(C)Nc4ccc(Cl)nc4-c4cncnc4)cc(C)cc3c(=O)n(CC(F)F)c21 (stereo not shown) [Example 238, 9-(1-((6-chloro-2-(pyrimidin-5-yl)pyridin-3-yl)amino)ethyl)-4-(2,2-difluoroethyl)-3-ethyl-7-methyl-3,4-dihydro-5H-pyrazolo[3,4-c]isoquinolin-5-one] | < 1 | – |

The next lines start with the values.

| IC50 (Homo sapiens) [µM] | IC50 [µM] | Structure (SMILES) |
| --- | --- | --- |
| < 1 | – | CCn1c(=O)c2cc(C)cc(C(C)Nc3ccc(Cl)nc3-c3ccc(C(=O)NC)nc3)c2c2cnn([C@H]3CCOC3)c21 (stereo partly drawn) [Example 220, 6-chloro-3-((1-(4-ethyl-7-methyl-5-oxo-3-((S)-tetrahydrofuran-3-yl)-4,5-dihydro-3H-pyrazolo[3,4-c]isoquinolin-9-yl)ethyl)amino)-N-methyl-[2,3′-bipyridine]-6′-carboxamide] |
| < 1 | – | CCn1ncc2c3c(C(C)Nc4ccc(Cl)nc4-c4ncn(C)n4)cc(C)cc3c(=O)n(C3CC3)c21 (stereo not shown) [Example 221, 9-(1-((6-Chloro-2-(1-methyl-1H-1,2,4-triazol-3-yl)pyridin-3-yl)amino)ethyl)-4-cyclopropyl-3-ethyl-7-methyl-3,4-dihydro-5H-pyrazolo[3,4-c]isoquinolin-5-one] |
| < 1 | – | CCn1ncc2c3c(C(C)Nc4ccc(Cl)nc4-c4ncn(C)n4)cc(C)cc3c(=O)n(CCO)c21 (stereo not shown) [Example 224, 9-[1-[[6-Chloro-2-(1-methyl-1,2,4-triazol-3-yl)-3-pyridyl]amino]ethyl]-3-ethyl-4-(2-hydroxyethyl)-7-methyl-pyrazolo[3,4-c]isoquinolin-5-one] |
| < 1 | – | [2H]C([2H])([2H])n1c(=O)c2cc(C)cc(C(C)Nc3ccc(Cl)nc3-c3noc(=O)[nH]3)c2c2cnn(CC)c21 (stereo not shown) [Example 227, 3-(6-Chloro-3-((1-(3-ethyl-7-methyl-4-(methyl-d3)-5-oxo-4,5-dihydro-3H-pyrazolo[3,4-c]isoquinolin-9-yl)ethyl)amino)pyridin-2-yl)-1,2,4-oxadiazol-5(4H)-one] |
| < 1 | – | CCn1ncc2c3c(C(C)Nc4ccc(Cl)nc4-c4cnnn4C)cc(C)cc3c(=O)n(C)c21 (stereo not shown) [Example 231, 9-(1-((6-chloro-2-(1-methyl-1H-1,2,3-triazol-5-yl)pyridin-3-yl)amino)ethyl)-3-ethyl-4,7-dimethyl-3,4-dihydro-5H-pyrazolo[3,4-c]isoquinolin-5-one] |
| < 1 | – | CCn1ncc2c3c(C(C)Nc4ccc(Cl)nc4-c4cnn(C5CCN(CCC#N)CC5)c4)cc(C)cc3c(=O)n(C)c21 (stereo not shown) [Example 234, 3-(4-(4-(6-chloro-3-((1-(3-ethyl-4,7-dimethyl-5-oxo-4,5-dihydro-3H-pyrazolo[3,4-c]isoquinolin-9-yl)ethyl)amino)pyridin-2-yl)-1H-pyrazol-1-yl)piperidin-1-yl)propanenitrile] |
| < 1 | – | CCn1ncc2c3c(C(C)Nc4ccc(Cl)nc4-c4ncn(C)n4)cc(C)cc3c(=O)n(CC(F)F)c21 (stereo not shown) [Example 236, 9-(1-((6-chloro-2-(1-methyl-1H-1,2,4-triazol-3-yl)pyridin-3-yl)amino)ethyl)-4-(2,2-difluoroethyl)-3-ethyl-7-methyl-3,4-dihydro-5H-pyrazolo[3,4-c]isoquinolin-5-one] |
| < 1 | – | CCn1ncc2c3c(C(C)Nc4ccc(Cl)nc4-c4ccnc(C)c4)cc(C)cc3c(=O)n(CC(F)F)c21 (stereo not shown) [Example 237, 9-(1-((6-chloro-2′-methyl-[2,4′-bipyridin]-3-yl)amino)ethyl)-4-(2,2-difluoroethyl)-3-ethyl-7-methyl-3,4-dihydro-5H-pyrazolo[3,4-c]isoquinolin-5-one] |
